Test system: rat small-intestinal brush border membrane vesicles
Test: Inhibitory effect on 33PO4 uptake into rat small-intestinal brush border membrane vesicles (rapid filtration method)
Type: biochemical
Details: 33PO4 uptake into rat small-intestinal BBMVs; test compound 1 µM; reacted for 60 seconds
Experimental: Brush border membrane vesicles (BBMVs) were prepared using the upper region of the small intestine of each Wistar female rat (4-5 weeks old). […] The ^33PO4 transport activity of the small-intestinal BBMVs was determined by the rapid filtration method. […] Then, ice-cold buffer C (110 mM NaCl, 1 mM KH2PO4, and 10 mM HEPES (pH 7.5)) was added to each reaction mixture, which was immediately suctionfiltered through a Millipore filter. The filter was washed with buffer C, and each sample was then dissolved in a liquid scintillator. The amount of ^33PO4 uptake into BBMVs was measured using a liquid scintillation counter. […]

Compound | Rate of uptake inhibition (%) (1 µM)
COc1cccc(-c2cc(C(F)(F)F)ccc2NC(=O)C2=C(O)[C@@]3(C)CCCN3N(Cc3ccc(C#CCOCCCCO)c(F)c3F)C2=O)c1OC [Example 123, (4aR)-1-[[2,3-Difluoro-4-[3-(4-hydroxybutoxy)prop-1-ynil]phenyl]methyl)-N-[2-(2.3-dimethoxyphenyl)-4-(trifluoromethyl)phenyl]-4-hydroxy-4a-methyl-2-oxo-6,7-dihydro-5H-pyrrolo[1,2-b]pyridazine-3-carboxamide] | 87
C[C@]12CCCN1N(Cc1c(F)cc(C#CCCCCCOC[C@H](O)[C@@H](O)CO)cc1F)C(=O)C(C(=O)Nc1ccc(C(F)(F)F)cc1-c1ccc(C(F)(F)F)nc1)=C2O [Example 124] | 81
C[C@]12CCCN1N(Cc1c(F)cc(CCCCCCCOC[C@H](O)[C@@H](O)CO)cc1F)C(=O)C(C(=O)Nc1ccc(C(F)(F)F)cc1-c1ccc(C(F)(F)F)nc1)=C2O [Example 125, (4aR)-1-[[2,6-Difluoro-4-[7-[(2S,3S)-2,3,4-trihydroxybutoxy]heptyl]phenyl]methyl]-4-hydroxy-4a-methyl-2-oxo-N-[4-(trifluoromethyl)-2-[6-(trifluoromethyl)pyridin-3-yl]phenyl]-6,7-dihydro-5H-pyrrolo[1,2-b]pyridazine-3-carboxamide] | 76
C#Cc1ccc(CN2C(=O)C(C(=O)Nc3ccc(C(F)(F)F)cc3-c3cc(C(F)(F)F)ncn3)=C(O)[C@@]3(C)CCCN23)c(F)c1F [Example 126] | 71
COc1cccc(-c2cc(C(F)(F)F)ccc2NC(=O)C2=C(O)[C@@]3(C)CCCN3N(Cc3ccc(C#CCOCCCO)c(F)c3F)C2=O)c1OC [Example 127] | 95
C[C@]12CCCN1N(Cc1ccc(C#CCOCCCCO)c(F)c1F)C(=O)C(C(=O)Nc1ccc(C(F)(F)F)cc1-c1ccc(C(F)(F)F)nc1)=C2O [Example 128] | 72
C[C@]12CCCN1N(Cc1c(F)cc(C#CC3(O)CCCC3)cc1F)C(=O)C(C(=O)Nc1ccc(C(F)(F)F)cc1-c1ccc(C(F)(F)F)nc1)=C2O [Example 130] | 72
C[C@]12CCCN1N(Cc1ccc(C#CCN3CCCC3=O)c(F)c1F)C(=O)C(C(=O)Nc1ccc(Br)c(F)c1)=C2O [Example 131] | 87
C[C@]12CCCN1N(Cc1c(F)cc(C#CCN3CCOCC3)cc1F)C(=O)C(C(=O)Nc1ccc(C(F)(F)F)cc1-c1ccc(C(F)(F)F)nc1)=C2O [Example 132] | 71
COc1cccc(-c2cc(C(F)(F)F)ccc2NC(=O)C2=C(O)[C@@]3(C)CCCN3N(Cc3ccc(C#CCCCCO)c(F)c3F)C2=O)c1OC [Example 135] | 90
COc1cccc(-c2cc(C(F)(F)F)ccc2NC(=O)C2=C(O)[C@@]3(C)CCCN3N(Cc3ccc(C#CCOCCOCCOCCO)c(F)c3F)C2=O)c1OC [Example 136] | 80
COc1cccc(-c2cc(C(F)(F)F)ccc2NC(=O)C2=C(O)[C@@]3(C)CCCN3N(Cc3ccc(C#CCOCCO)c(F)c3F)C2=O)c1OC [Example 137] | 92
COc1cccc(-c2cc(C(F)(F)F)ccc2NC(=O)C2=C(O)[C@@]3(C)CCCN3N(Cc3ccc(C#CCCCO)c(F)c3F)C2=O)c1OC [Example 138] | 93
COc1cccc(-c2cc(C(F)(F)F)ccc2NC(=O)C2=C(O)[C@@]3(C)CCCN3N(Cc3ccc(C#CCOCCOCCO)c(F)c3F)C2=O)c1OC [Example 139] | 88
C[C@]12CCCN1N(Cc1ccc(CCCOCCCO)c(F)c1F)C(=O)C(C(=O)Nc1ccc(C(F)(F)F)cc1-c1ccc(C(F)(F)F)nc1)=C2O [Example 141] | 83
COc1cccc(-c2cc(C(F)(F)F)ccc2NC(=O)C2=C(O)[C@@]3(C)CCCN3N(Cc3ccc(CCCOCCOCCOCCO)c(F)c3F)C2=O)c1OC [Example 142] | 76

Compound | Rate of uptake inhibition (%) (1 µM)
C[C@]12CCCN1N(Cc1c(F)cc(C#CCCCCOC[C@H](O)CO)cc1F)C(=O)C(C(=O)Nc1ccc(C(F)(F)F)cc1-c1ccc(C(F)(F)F)nc1)=C2O.[Na+] [Example 143] | 71
C[C@]12CCCN1N(Cc1c(F)cc(C#CCCOC[C@H](O)CO)cc1F)C(=O)C(C(=O)Nc1ccc(C(F)(F)F)cc1-c1ccc(C(F)(F)F)nc1)=C2O [Example 145] | 78
C[C@]12CCCN1N(Cc1c(Cl)cc(OCCN3CCOCC3)cc1Cl)C(=O)C(C(=O)Nc1cnc(C(F)(F)F)nc1-c1ccc(C(F)(F)F)nc1)=C2O.Cl [Example 146, (4aR)-1-[[2,6-Dichloro-4-(2-morpholin-4-ylethoxy)phenyl]methyl]-4-hydroxy-4a-methyl-2-oxo-N-[2-(trifluoromethyl)-4-[6-(trifluoromethyl)pyridin-3-yl]pyrimidin-5-yl]-6,7-dihyvdro-5H-pyrrolo[1,2-b]pyridazine-3-carboxamide hydrochloride] | 71
C[C@]12CCCN1N(Cc1c(Cl)cc(OCCN3CCOCC3)cc1Cl)C(=O)C(C(=O)Nc1ccc(C(F)(F)F)nc1-c1ccc(C(F)(F)F)nc1)=C2O.Cl [Example 148, (4aR)-1-[[2,6-Dichloro-4-(2-morpholin-4-ylethoxy)phenyl]methyl]-4-hydroxy-4a-methyl-2-oxo-N-[6-(trifluoromethyl)-2-16-(trifluoromethyl)pyridin-3-yl]pyridin-1-yl]-6,7-dihydro-5H-pyrrolo[1,2-bipyridazine-3-carboxamide hydrochloride] | 75
C[C@]12CCCN1N(Cc1ccc(OCCN3CCOCC3)c(Cl)c1)C(=O)C(C(=O)Nc1ccc(C(F)(F)F)cc1-c1ccc(C(F)(F)F)nc1)=C2O [Example 149, (4aR)-1-[[3-Chloro-4-(2-morpholin-4-ylethoxy)phepyl]methyl]-4-hydroxy-4a-methyl-2-oxo-N-[4-(trifluoromethyl)-2-[6-(trifluoromethyl)pyridin-3-yl]phenyl]-6,7-dihydro-5H-pyrrolo[1,2-b]pyridazine-3-carboxamide] | 80
COC(=O)COc1ccc(CN2C(=O)C(C(=O)Nc3ccc(C(F)(F)F)cc3-c3ccc(C(F)(F)F)nc3)=C(O)[C@@]3(C)CCCN23)c(F)c1F [Example 150, Methyl 2-[4-[[(4aR)-4-Hydroxy-4a-methyl-2-oxo-3-[[4-(trifluoromethyl)-2-[6-(trifluoromethyl)pyridin-3-yl]phenyl]carbamoy]-6,7-dihydro-5H-pyrrolor[1,2-b]pyridazin-1-yl]methyl]-2,3-difluorophenoxy] acetate] | 87
COc1cccc(-c2cc(C(F)(F)F)ccc2NC(=O)C2=C(O)[C@@]3(C)CCCN3N(Cc3ccc(OCc4ccncc4)c(F)c3F)C2=O)c1OC [Example 151] | 92
C[C@]12CCCN1N(Cc1c(F)cc(OCCCCCOC[C@@H](O)CO)cc1F)C(=O)C(C(=O)Nc1ccc(C(F)(F)F)cc1-c1ccc(C(F)(F)F)nc1)=C2O [Example 153] | 73
C[C@]12CCCN1N(Cc1c(F)cc(OCCCCCCOC[C@@H](O)CO)cc1F)C(=O)C(C(=O)Nc1ccc(C(F)(F)F)cc1-c1ccc(C(F)(F)F)nc1)=C2O [Example 154] | 73
C[C@]12CCCN1N(Cc1c(F)cc(OCCCCCCOC[C@H](O)CO)cc1F)C(=O)C(C(=O)Nc1ccc(C(F)(F)F)cc1-c1ccc(C(F)(F)F)nc1)=C2O [Example 155] | 77
COc1cccc(-c2cc(C(F)(F)F)ccc2NC(=O)C2=C(O)[C@@]3(C)CCCN3N(Cc3ccc(OC4CCOCC4)c(F)c3F)C2=O)c1OC [Example 158] | 84
COc1cccc(-c2cc(C(F)(F)F)ccc2NC(=O)C2=C(O)[C@@]3(C)CCCN3N(Cc3ccc(OC[C@H]4CCCO4)c(F)c3F)C2=O)c1OC [Example 159] | 89
C[C@]12CCCN1N(Cc1ccc(OC[C@H]3CCCO3)c(F)c1F)C(=O)C(C(=O)Nc1ccc(C(F)(F)F)cc1-c1ccc(C(F)(F)F)nc1)=C2O [Example 160] | 77
C[C@]12CCCN1N(Cc1ccc(OCCCCCO)c(F)c1F)C(=O)C(C(=O)Nc1ccc(C(F)(F)F)cc1-c1cc(C(F)(F)F)ncn1)=C2O [Example 162] | 73
C[C@]12CCCN1N(Cc1ccc(SCCN3CCOCC3)c(F)c1F)C(=O)C(C(=O)Nc1ccc(C(F)(F)F)cc1-c1ccc(C(F)(F)F)nc1)=C2O.Cl [Example 163, (4aR)-1-[[2,3-Difluoro-4-(2-morpholin-4-ylethylsulfanyl)phenyl]methyl]-4-hydroxy-4a-methyl-2-oxo-N-[4-(trifluoromethyl)-2-[6-(trifluoromethyl)pyridin-3-yl]phenyl]-6,7-dihydro-5H-pyrrolo[1,2-b]pyridazine-3-carboxamide hydrochloride] | 79
COC(=O)c1cc(F)c(CN2C(=O)C(C(=O)Nc3ccc(C(F)(F)F)cc3-c3ccc(C(F)(F)F)nc3)=C(O)[C@@]3(C)CCCN23)c(F)c1 [Example 165, Methyl 4-[[(4aR)-4-Hydroxy-4a-methyl-2-oxo-3-[[4-(trifluoromethyl)-2-[6-(trifluoromethyl)pyridin-3-yl]phenyl]carbamoyl]-6,7-dihydro-5H-pyrrolo[1,2-b]pyridazin-1 - yl]methyl]-3,5-difluorobenzoate] | 75

Source: patent EP3928779A1 (Chugai Seiyaku Kabushiki Kaisha, priority 2014, dated 2016)
